These molecules were tested on UT7/EPO Cell line (assay: Cell Proliferation Assay (UT7/EPO, ViaLight Plus)). Settings: proliferative effect; compounds at 10 uM; UT7/EPO cells starved of EPO overnight; 72 hours at 37° C.; ViaLight Plus kit.
Type: cell-based, human
Method in brief: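 UT7/EPO human leukemia cells (endogenous EPO receptor, EPO-dependent growth) were EPO-starved overnight, then exposed to compounds at 10 uM for 72 hours at 37° C. Proliferation was read out by ATP-based luminescence (ViaLight Plus).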
`CN(C)c1ccc(NC(=O)c2ccc(-c3nc4cc(C(=O)Nc5ccc(N(C)C)cc5)ccc4[nH]3)cc2)cc1` [Compound 197, N-(4-(dimethylamino)phenyl)-2-(4-((4-(dimethylamino)phenyl)carbamoyl)phenyl)-1H-benzo[d]imidazole-5-carboxamide] was tested, and the “Activity (%)” value was 20%. `CN(C)c1ccc(C(=O)Nc2ccc(C(=O)c3ccc(NC(=O)c4ccc(F)cc4)cc3)cc2)cc1` [Compound 354, 4-(Dimethylamino)-N-(4-(4-(4-fluorobenzamido)benzoyl)phenyl)benzamide] was tested, and the “Activity (%)” value was 20%. For `N#CCNC(=O)c1ccc(-n2ncc3cc(NC(=O)c4ccc(N5CCC(O)CC5)cc4)ccc32)cc1` [Compound 1045, N-(Cyanomethyl)-4-(5-(4-(4-hydroxypiperidin-1-yl)benzamido)-1H-indazol-1-yl)benzamide], the “Activity (%)” value was 15%. For `COc1cccc(C(=O)Nc2ccc3[nH]c(-c4ccccc4)nc3c2)c1` [Compound 1724, 3-Methoxy-N-(2-phenyl-1H-benzimidazol-5-yl)benzamide], the “Activity (%)” value was 13%. `O=C(Nc1ccc2[nH]c(-c3ccc(-c4ccccn4)cc3)nc2c1)c1ccccc1` [Compound 479, N-(2-(4-(Pyridin-2-yl)phenyl)-1H-benzimidazol-5-yl)benzamide] was tested, and the “Activity (%)” value was 15%. In the case of `N#Cc1ccc(-n2ncc3cc(NC(=O)c4ccc(N5CCC(O)CC5)cc4)ccc32)cc1` [Compound 404, N-(1-(4-Cyanophenyl)-1H-indazol-5-yl)-4-(4-hydroxypiperidino)benzamide], the “Activity (%)” value is reported as 14%. In the case of `O=C(Nc1ccc2[nH]c(-c3ccccc3)nc2c1)c1ccc(-c2ccccc2)cc1` [Compound 172, N-(2-Phenyl-1H-benzo[d]imidazol-5-yl)-[1,1′-biphenyl]-4-carboxamide], the “Activity (%)” value is reported as 12%. For `CN(C)c1ccc(C(=O)Nc2ccc(C(=NOC(=O)Cc3ccccc3)c3ccc(NC(=O)c4ccc(N(C)C)cc4)cc3)cc2)cc1` [Compound 310, N,N′-((((2-phenylacetoxy)imino)methylene)bis(4,1-phenylene))bis(4-(dimethylamino)benzamide)], the “Activity (%)” value was 22%.

From patent US9144557B2, “Hematopoietic growth factor mimetic small molecule compounds and their uses” (Ligand Pharmaceuticals Inc., priority 2009, dated 2015)
